Values joined by “and” are separate entries in the source; they are usually repeats but may differ in a detail not shown here. Equal values may be shown once.
Assays:
[1] = system: PGE2 expressed on the skin surface; experiment: PGE2 on skin surface 24 h after 4 h Hill Top chamber exposure, Sebutape collection, immunoassay; type: in vivo, human; details: for Normalized levels of PGE2, Average: average of 10 panelists; for Normalized levels of PGE2: individual panelists 1-10
Experimental: Assay Designs, Inc. PGE2 Enzyme Immunoassay:
(§1) 1. Baseline (corresponding to an untreated control) levels of PGE2 contained in secretions present on the skin surface were measured along the lower volar forearms of test panelists by placing a mild adhesive-coated microporous plastic film, Sebutape® (Cuderm Corporation, Dallas, Tex.), on the skin with the adhesive side down, making direct contact with the skin. The Sebutape® was removed from the skin after 1 minute and then placed in a vial containing 500 μL saline. This Sebutape® collection process was repeated three more times with a 1-minute contact time for each Sebutape®. The collected samples were stored at −70 ° C. until analysis (described below).
(§2) 2. Hill Top chambers® (Hill Top Research, Cincinnati, Ohio) containing 400 μL of the test fluid (deionized or tap water) were applied to the lower volar forearms of the test panelists. After 4 hours of exposure, the Hill Top chambers® were removed and the test sites were rinsed with tap water and patted dry.
(§3) 3. Twenty four hours after the Hill Top chambers® were removed and the arm was rinsed and patted dry, skin secretions containing PGE2 expressed on the skin surface were collected using the Sebutape absorption method described previously in Step #1 above.
The collected Sebutape® samples were analyzed using the following methods. After thawing, the samples were sonicated for 15 minutes and vortexed vigorously. The solutions, containing extracted proteins and eicosanoids, were analyzed for levels of PGE2 via immunoassay (Assay Designs High Sensitivity PGE2 Enzyme Immunoassay #93001) and levels of total protein using the bicinchoninic acid (BCA) protein assay (Kit #23225, Pierce Chemical Company, Rockford, Ill.).
Four Sebutape® samples were taken from each test site. The measured levels of PGE2 (in pg/mL) were normalized against the total amount of protein (in μg/mL) extracted from each Sebutape® strip. The four normalized values were then averaged to determine the levels of PGE2 (in pg/μg) expressed for each test site. To account for person-to-person variability, PGE2 levels, for each panelist were further normalized relative to the levels of PGE2 measured for the untreated control.
The method of Example 1 was extended to measure the level of inflammation or irritation elicited by a dilute solution (8% w/w in deionized water) of a mild facial cleanser (Neutrogena Fresh Foaming Cleanser, Neutrogena Corporation, Los Angeles, California) compared to that of deionized water.

[2] = system: IL-1α expressed on the skin; experiment: IL-1α on skin surface after Hill Top chamber exposure to SLS solutions, Sebutape collection, ELISA; type: in vivo, human
Experimental: Endogen, Inc. Interleukin-1α ELISA
as §1, §2, §3
The level of irritation caused by dilute solutions of SLS as a function of SLS concentration was assessed using the method described in Example 1, with the exception that the level of Interleukin-1α(IL-1α) was used to assess the degree of irritation, rather than PGE2. The levels of IL-1α were measured via immunoassay (Human IL-1αKit #EH2-IL1a, Endogen, Inc., Woburn. Mass.). As with PGE2, the measured levels of IL-1α(in pg/mL) were normalized against the total amount of protein (in μg/mL) extracted from each Sebutape® strip. To account for person-to-person variability, IL-1α levels for each treatment site were further normalized using the baseline levels of IL-1α measured for the untreated control.

| SMILES | Normalized levels of PGE2, Average ([1]; Example 3, cleanser as 8% w/w in deionized water) [dimensionless units] | Normalized levels of PGE2 ([1]; Example 3, cleanser as 8% w/w in deionized water, 4 h chamber) | Normalized levels of PGE2, Average ([1]; 4 h chamber on volar forearm, collected 24 h later) [dimensionless units] | Normalized levels of PGE2 ([1]; 400 μL fluid, 4 h chamber on volar forearm, collected 24 h later, normalized to protein and untreated control) | Levels of IL-1α ([2]; 5 w/w % SLS in deionized water) [dimensionless units] | Levels of IL-1α ([2]; 10 w/w % SLS in deionized water) [dimensionless units] | Levels of IL-1α ([2]; 20 w/w % SLS in deionized water) [dimensionless units] |
| --- | --- | --- | --- | --- | --- | --- | --- |
| O [Deionized Water] | 1.53 | 1.49 dimensionless units and 2.12 dimensionless units and 1.25 dimensionless units and 1.60 dimensionless units and 1.77 dimensionless units and 1.45 dimensionless units and 1.98 dimensionless units and 1.48 dimensionless units and 1.30 dimensionless units and 0.83 dimensionless units | 0.86 | 0.92 dimensionless units and 0.84 dimensionless units and 0.93 dimensionless units and 1.71 dimensionless units and 1.01 dimensionless units and 0.94 dimensionless units and 0.40 dimensionless units and 0.56 dimensionless units and 0.62 dimensionless units and 0.69 dimensionless units |  |  |  |
| CCCCCCCCCCCCOS(=O)(=O)[O-].[Na+] [SLS, sodium lauryl sulfate] |  |  |  |  | 2.83 | 2.71 | 1.00 |

From patent US20030068663A1, “Method and kit for measuring skin inflammation or irritation” (priority 2001, published 2003)
